Assay results published in US20030105595A1, “Chi square tests for gene expression” (priority 2001, published 2003).

Tests used:
Assay in all cases: multi-sample expression analysis, band intensity
Format in all cases: in vivo
Details in all cases: Pooled
band b1i0_51.7 = tested on: band b1i0_51.7
Excerpt: (§1) To practice the invention, one skilled in the art obtains a source of biological samples, as well as expression information about the biological samples, i.e., expression information relative to one or more genes or polypeptides encoded therein. Data is collected for a particular phenotype appearing within a given population under study, whereby expression of that phenotype is to be determined within the biological sample under study. The phenotype is correlated to a specific genotype, which is then represented as a band with a given intentity, thus indicative of gene expression levels, and is then compared to control samples. Alternatively, the response of a gene to dosage with one or more drugs is determined by band intensity. The standard deviation from the mean (StdDev) is calculated for the control samples, and is fit to functional form in the following equation: […]
(§2) A multi-sample expression analysis was run using the program described in Example 1. For each drug run, only runs for genes producing bands with a p-value<10^−5 in at least 2 of the following 3 comparisons were selected: low dose versus vehicle, high dose versus vehicle and low dose versus high dose. […] Since clusters found using all 13K bands included some of the best 2K bands, it was concluded that no essential signal was lost (see FIGS. 3 and 4). […] A comparison using the same analytic tests on only the best 2K bands. It can be seen that the Chi Square metric provides a better distinction between low and high doses than the correlation metric, which is not able to distinguish between the low dose and the high dose (see FIG. 6). The low-dose/high dose statistical variation is more pronounced when only the best 2K bands are selected.

band b1i0_53.0 = tested on: band b1i0_53.0
Excerpt: as §1, §2

band b1i0_54.5 = tested on: band b1i0_54.5
Excerpt: as §1, §2

band b1i0_57.4 = tested on: band b1i0_57.4
Excerpt: as §1, §2

band b1i0_60.7 = tested on: band b1i0_60.7
Excerpt: as §1, §2

band b1i0_62.5 = tested on: band b1i0_62.5
Excerpt: as §1, §2

band b1i0_63.7 = tested on: band b1i0_63.7
Excerpt: as §1, §2

band b1i0_69.4 = tested on: band b1i0_69.4
Excerpt: as §1, §2

S=C=Nc1cccc2ccccc12 [ANIT]
band intensity b1i0_51.7 (band b1i0_51.7; High dose, 1d): 23.54
band intensity b1i0_51.7 (band b1i0_51.7; High dose, 3d): 30.1
band intensity b1i0_51.7 (band b1i0_51.7; High dose, 7d): 21.57
band intensity b1i0_51.7 (band b1i0_51.7; Low dose, 1d): 30.7
band intensity b1i0_51.7 (band b1i0_51.7; Low dose, 3d): 22.37
band intensity b1i0_51.7 (band b1i0_51.7; Low dose, 7d): 20.67
band intensity b1i0_51.7 (band b1i0_51.7; Low dose, 14d): 82
band intensity b1i0_53.0 (band b1i0_53.0; High dose, 1d): 99.5
band intensity b1i0_53.0 (band b1i0_53.0; High dose, 3d): 84.16
band intensity b1i0_53.0 (band b1i0_53.0; High dose, 7d): 106.3
band intensity b1i0_53.0 (band b1i0_53.0; Low dose, 1d): 121.8
band intensity b1i0_53.0 (band b1i0_53.0; Low dose, 3d): 45.02
band intensity b1i0_53.0 (band b1i0_53.0; Low dose, 7d): 108.1
band intensity b1i0_53.0 (band b1i0_53.0; Low dose, 14d): 54.67
band intensity b1i0_54.5 (band b1i0_54.5; High dose, 1d): 102.2
band intensity b1i0_54.5 (band b1i0_54.5; High dose, 3d): 114.2
band intensity b1i0_54.5 (band b1i0_54.5; High dose, 7d): 95.67
band intensity b1i0_54.5 (band b1i0_54.5; Low dose, 1d): 105.3
band intensity b1i0_54.5 (band b1i0_54.5; Low dose, 3d): 111.3
band intensity b1i0_54.5 (band b1i0_54.5; Low dose, 7d): 88.17
band intensity b1i0_54.5 (band b1i0_54.5; Low dose, 14d): 33.49
band intensity b1i0_57.4 (band b1i0_57.4; High dose, 1d): 1272
band intensity b1i0_57.4 (band b1i0_57.4; High dose, 3d): 712.4
band intensity b1i0_57.4 (band b1i0_57.4; High dose, 7d): 685.8
band intensity b1i0_57.4 (band b1i0_57.4; Low dose, 1d): 1209.0048
band intensity b1i0_57.4 (band b1i0_57.4; Low dose, 3d): 1266
band intensity b1i0_57.4 (band b1i0_57.4; Low dose, 7d): 1303
band intensity b1i0_57.4 (band b1i0_57.4; Low dose, 14d): 810.7
band intensity b1i0_60.7 (band b1i0_60.7; High dose, 1d): 74.32
band intensity b1i0_60.7 (band b1i0_60.7; High dose, 3d): 74.89
band intensity b1i0_60.7 (band b1i0_60.7; High dose, 7d): 72.63
band intensity b1i0_60.7 (band b1i0_60.7; Low dose, 1d): 87.08
band intensity b1i0_60.7 (band b1i0_60.7; Low dose, 3d): 67.38
band intensity b1i0_60.7 (band b1i0_60.7; Low dose, 7d): 75.42
band intensity b1i0_60.7 (band b1i0_60.7; Low dose, 14d): 141.7
band intensity b1i0_62.5 (band b1i0_62.5; High dose, 1d): 49.33
band intensity b1i0_62.5 (band b1i0_62.5; High dose, 3d): 93.56
band intensity b1i0_62.5 (band b1i0_62.5; High dose, 7d): 81.4
band intensity b1i0_62.5 (band b1i0_62.5; Low dose, 1d): 68.44
band intensity b1i0_62.5 (band b1i0_62.5; Low dose, 3d): 104.9
band intensity b1i0_62.5 (band b1i0_62.5; Low dose, 7d): 91.61
band intensity b1i0_62.5 (band b1i0_62.5; Low dose, 14d): 249.3
band intensity b1i0_63.7 (band b1i0_63.7; High dose, 1d): 50.09
band intensity b1i0_63.7 (band b1i0_63.7; High dose, 3d): 0.01399
band intensity b1i0_63.7 (band b1i0_63.7; High dose, 7d): 147.9
band intensity b1i0_63.7 (band b1i0_63.7; Low dose, 1d): 170.6
band intensity b1i0_63.7 (band b1i0_63.7; Low dose, 3d): 7.245
band intensity b1i0_63.7 (band b1i0_63.7; Low dose, 7d): 299.4
band intensity b1i0_63.7 (band b1i0_63.7; Low dose, 14d): 9.845
band intensity b1i0_69.4 (band b1i0_69.4; High dose, 1d): 208.6
band intensity b1i0_69.4 (band b1i0_69.4; High dose, 3d): 284.1
band intensity b1i0_69.4 (band b1i0_69.4; High dose, 7d): 271.2
band intensity b1i0_69.4 (band b1i0_69.4; Low dose, 1d): 276.3
band intensity b1i0_69.4 (band b1i0_69.4; Low dose, 3d): 370.5
band intensity b1i0_69.4 (band b1i0_69.4; Low dose, 7d): 305.4
band intensity b1i0_69.4 (band b1i0_69.4; Low dose, 14d): 748.9

O=NN(CCCl)C(=O)NCCCl [BCNU]
band intensity b1i0_51.7 (band b1i0_51.7; High dose, 1d): 29.61
band intensity b1i0_51.7 (band b1i0_51.7; High dose, 3d): 30.97
band intensity b1i0_51.7 (band b1i0_51.7; Low dose, 1d): 24.27
band intensity b1i0_51.7 (band b1i0_51.7; Low dose, 3d): 21.64
band intensity b1i0_51.7 (band b1i0_51.7; Low dose, 7d): 19.76
band intensity b1i0_53.0 (band b1i0_53.0; High dose, 1d): 110.8
band intensity b1i0_53.0 (band b1i0_53.0; High dose, 3d): 118.4
band intensity b1i0_53.0 (band b1i0_53.0; Low dose, 1d): 117.1
band intensity b1i0_53.0 (band b1i0_53.0; Low dose, 3d): 98.96
band intensity b1i0_53.0 (band b1i0_53.0; Low dose, 7d): 104.2
band intensity b1i0_54.5 (band b1i0_54.5; High dose, 1d): 112.4
band intensity b1i0_54.5 (band b1i0_54.5; High dose, 3d): 112.1
band intensity b1i0_54.5 (band b1i0_54.5; Low dose, 1d): 102.8
band intensity b1i0_54.5 (band b1i0_54.5; Low dose, 3d): 103.6
band intensity b1i0_54.5 (band b1i0_54.5; Low dose, 7d): 108.2
band intensity b1i0_57.4 (band b1i0_57.4; High dose, 1d): 1154
band intensity b1i0_57.4 (band b1i0_57.4; High dose, 3d): 1296
band intensity b1i0_57.4 (band b1i0_57.4; Low dose, 1d): 1235
band intensity b1i0_57.4 (band b1i0_57.4; Low dose, 3d): 1367
band intensity b1i0_57.4 (band b1i0_57.4; Low dose, 7d): 1345
band intensity b1i0_60.7 (band b1i0_60.7; High dose, 1d): 78.55
band intensity b1i0_60.7 (band b1i0_60.7; High dose, 3d): 115.4
band intensity b1i0_60.7 (band b1i0_60.7; Low dose, 1d): 88.97
band intensity b1i0_60.7 (band b1i0_60.7; Low dose, 3d): 80.09
band intensity b1i0_60.7 (band b1i0_60.7; Low dose, 7d): 96.79
band intensity b1i0_62.5 (band b1i0_62.5; High dose, 1d): 67.75
band intensity b1i0_62.5 (band b1i0_62.5; High dose, 3d): 84.85
band intensity b1i0_62.5 (band b1i0_62.5; Low dose, 1d): 69.48
band intensity b1i0_62.5 (band b1i0_62.5; Low dose, 3d): 57.9
band intensity b1i0_62.5 (band b1i0_62.5; Low dose, 7d): 82.58
band intensity b1i0_63.7 (band b1i0_63.7; High dose, 1d): 98.18
band intensity b1i0_63.7 (band b1i0_63.7; High dose, 3d): 115.1
band intensity b1i0_63.7 (band b1i0_63.7; Low dose, 1d): 155.4
band intensity b1i0_63.7 (band b1i0_63.7; Low dose, 3d): 104.2
band intensity b1i0_63.7 (band b1i0_63.7; Low dose, 7d): 204.2
band intensity b1i0_69.4 (band b1i0_69.4; High dose, 1d): 194.3
band intensity b1i0_69.4 (band b1i0_69.4; High dose, 3d): 219.1
band intensity b1i0_69.4 (band b1i0_69.4; Low dose, 1d): 254
band intensity b1i0_69.4 (band b1i0_69.4; Low dose, 3d): 292.1
band intensity b1i0_69.4 (band b1i0_69.4; Low dose, 7d): 325.1
